For 10 compounds, EC50 and inhibition results are on record in US10206909B2, “3-(1H-pyrrolo[2,3-B]pyridin-2-yl)-1H-pyrazolo[4,3-B]pyridines and therapeutic uses thereof” (Samumed, LLC, priority 2015, dated 2019).

Holding throughout (assay type): cell-based
Test [1] has as its system IL-6 (THP-1 cells). In words: IL-6 inhibition in LPS-stimulated THP-1 cells (HTRF). The conditions noted are these: Homo sapiens; for EC50: THP-1 cells, LPS 500 ng/mL, 22 hours, IL6 HTRF; for inhibition at 10 µM: given where EC50 >10 μM, THP-1, IL6, read-out: percent inhibition at 10 μM. The protocol: Human Monocyte Cell Culture: Human monocyte cell line (THP-1 cells; Catalog # TIB-202, ATCC, Manassas, Va.) were cultured in Roswell Park Memorial Institute (RPMI) 1640 Medium (Catalog #21870-100, Buffalo, N.Y.) with 1% L-glutamine, 1% HEPES, 1% Sodium Pyruvate, 2% Sodium Bicarbonate supplemented with 100 units/mL penicillin, 50 μg/mL streptomycin, 2-mercaptoethanol (0.05 mM) [basal medium] and 10% fetal bovine serum (Catalog #16140089, Life Technologies, Carlsbad, Calif.) at 37° C. and 5% CO2.
Compound Screening: THP-1 cells were cultured in basal media with 1% FBS for 24 hours before the start of the assay. Each compound was dissolved in DMSO as a 10 mM stock and used to prepare compound source plates. Serial dilution (1:3, 10-point dose-response curves starting from 10 μM) and compound transfer was performed using the ECHO 550 (Labcyte, Sunnyvale, Calif.) into 384-well white low volume assay plates (Greiner Bio-One) with appropriate DMSO backfill for a final DMSO concentration of 0.1%. THP-1 cells were plated at 5000 cells/well in the 384-well plates and incubated at 37° C. for 2 h. 500 ng/mL of LPS was added after 2 hours and cells were incubated for another 22 hours at 37° C. Plates were spun in a centrifuge for 1 minute at […] and a mixture of anti-IL6 XL665, and anti-IL6 Cryptate diluted in reconstitution buffer (Cisbio Inc.) was added to each well. Following incubation for 3 hrs at room temperature, Homogeneous Time-Resolved Fluorescence (HTRF) was measured using the Envision (Perkin Elmer) at 665 nm and […]. The ratio of fluorescence at 665 nm to 620 nm was used as a readout for IL6 quantification. All samples were processed in duplicate. Readings were normalized to DMSO treated cells and normalized activities were utilized for EC50 calculations using the dose-response log (inhibitor) vs. response —variable slope (four parameters) nonlinear regression feature available in GraphPad Prism 5.0 (or Dotmatics). For EC50 of >10 μM, the percent inhibition at 10 μM is provided.

In test [2] the test system is primary human fibroblasts derived from IPF patients (LL29 cells). In words: Inhibition of the fibrotic process: αSMA staining in TGF-β1 treated fibroblasts. As to conditions: Fibroblast; for EC50: 96 h, LL29 cells, TGF-β1 20 ng/mL, 4 days, % αSMA positive cells; for inhibition at 10 µM: given where EC50 >10 μM, LL29, αSMA, read-out: percent inhibition at 10 μM. From the text:
Representative compounds were screened using primary human fibroblasts (derived from IPF patients) treated with TGF-β1 to determine their ability to inhibit the fibrotic process.
Human Fibroblast Cell Culture: Primary human fibroblasts derived from IPF patients (LL29 cells) [^1Xiaoqiu Liu, et. al., “Fibrotic Lung Fibroblasts Show Blunted Inhibition by cAMP Due to Deficient cAMP Response Element-Binding Protein Phosphorylation”, Journal of Pharmacology and Experimental Therapeutics (2005), 315(2), 678-687; ^2Watts, K. L., et. al., “RhoA signaling modulates cyclin D1 expression in human lung fibroblasts; implications for idiopathic pulmonary fibrosis”, Respiratory Research (2006), 7(1), 88] were obtained from American Type Culture Collection (ATCC) and expanded in F12 medium supplemented with 15% Fetal Bovine Serum and Penicillin/Streptomycin.
Compound Screening: Each compound was dissolved in DMSO as a 10 mM stock and used to prepare compound source plates. Serial dilution (1:2, 11-point dose-response curves from 10 μM to […]) and compound transfer was performed using the ECHO 550 (Labcyte, Sunnyvale, Calif.) into 384-well clear bottom assay plates (Greiner Bio-One) with appropriate DMSO backfill for a final DMSO concentration of 0.1%. LL29 cells are plated at 1,500 cells/well in 80 μL/well F12 medium supplemented with 1% Fetal Bovine Serum. One hour after addition of the cells, TGF-β1 (Peprotech; 20 ng/mL) was added to the plates to induce fibrosis (ref. 1 and 2 above). Wells treated with TGF-β1 and containing DMSO were used as controls. Cells were incubated at 37° C. and 5% CO2 for 4 days. Following incubation for 4 days, SYTOX green nucleic acid stain (Life Technologies [Thermo Fisher Scientific]) was added to the wells at a final concentration of 1 μM and incubated at room temperature for 30 min. Cells were then fixed using 4% formaldehyde (Electron Microscopy Sciences), washed 3 times with PBS followed by blocking and permeabilization using 3% Bovine Serum Albumin (BSA; Sigma) and 0.3% Triton X-100 (Sigma) in PBS. Cells were then stained with antibody specific to α-smooth muscle actin (αSMA; Abcam) (ref. 1 and 2 above) in 3% Bovine Serum Albumin (BSA; Sigma) and 0.3% Triton X-100 (Sigma) in PBS, and incubated overnight at 4° C. Cells were then washed 3 times with PBS, followed by incubation with Alexa Flor-647 conjugated secondary antibody (Life Technologies [Thermo Fisher Scientific]) and DAPI at room temperature for 1 hour. Cells were then washed 3 times with PBS and plates were sealed for imaging. αSMA staining was imaged by excitation at 630 nm and emission at 665 nm and quantified using the Compartmental Analysis program on the CellInsight CX5 (Thermo Scientific). Dead or apoptotic cells were excluded from analysis based on positive SYTOX green staining. % of total cells positive for αSMA were counted in each well and normalized to the average of 11 wells treated with TGF-β1 on the same plate using Dotmatics' Studies Software. The normalized averages (fold change over untreated) of 3 replicate wells for each compound concentration were used to create dose-responses curves and EC50 values were calculated using non-linear regression curve fit in the Dotmatics' Studies Software. For EC50 of >10 μM, the percent inhibition at 10 μM is provided.

Test [3] deals with SW480 colon cancer cells. In words: Cell viability assay (CellTiter-Blue). As to conditions: Homo sapiens; for EC50: 96 h, SW480 cell viability, four days, CellTiter-Blue; for inhibition at 10 µM: given where EC50 >10 μM, SW480 viability, read-out: percent inhibition at 10 μM. On the procedure:
Representative compounds were screened using the following assay procedure to assess the effect on cell viability as described below.
Each compound was dissolved in DMSO as a 10 mM stock and used to prepare compound source plates. Serial dilution (1:3, 8-point dose-response curves from 10 μM to 0.0045 μM) and compound transfer was performed using the ECHO 550 (Labcyte, Sunnyvale, Calif.) into 96-well clear bottom, black-walled plates (Corning-Costar).
Approximately 2×10^3 SW480 colon cancer cells were seeded into each well and allowed to incubate in the presence or absence of compound for four days at 37° C./5% CO2. Eight replicates of DMSO-treated cells served as controls and cells treated with compound were performed in duplicate.
After incubation, 20 μL of CellTiter-Blue (Promega) was added to each well allowed to incubate for approximately 3 hours. This reagent was a buffered solution which contains resazurin, metabolically active cells were able to reduce rezarurin (blue) into resorufin (pink) which was highly fluorescent. This measured fluorescence was used as a readout for cell viability.
After incubation, the plates were read at Ex 560 nm Em 590 nm (Cytation 3, BioTek). Dose-response curves were generated and EC50 concentration values were calculated using non-linear regression curve fit in the GraphPad Prism (San Diego, Calif.) or Dotmatics' Studies Software (Bishops Stortford, UK). For EC50 of >10 μM, the percent inhibition at 10 μM is provided.

Regarding `Fc1cccc(-c2ccnc3[nH]c(-c4n[nH]c5ccc(-c6cccnc6)nc45)cc23)c1` [Compound 4, 3-(4-(3-Fluorophenyl)-1H-pyrrolo[2,3-b]pyridin-2-yl)-5-(pyridin-3-yl)-1H-pyrazolo[4,3-b]pyridine], the EC50 in test [1] is 1.84 µM; in test [2], 0.144 µM; in test [3], over 10 µM. In addition, the inhibition at 10 µM in test [3] came out at 6.4%.

Regarding `CC(C)(C)C(=O)Nc1cncc(-c2ccc3[nH]nc(-c4cc5c(-c6cccc(F)c6)ccnc5[nH]4)c3n2)c1` [Compound 8, N-(5-(3-(4-(3-Fluorophenyl)-1H-pyrrolo[2,3-b]pyridin-2-yl)-1H-pyrazolo [4,3-b]pyridin-5-yl)pyridin-3-yl)pivalamide], the EC50 in test [1] is over 10 µM; in test [2], 1.1 µM; in test [3] it was over 10 µM. The figures for the inhibition at 10 µM in test [1] and in test [3] were 13.7% and 18.4%, respectively.

Regarding `Fc1cccc(-c2ccnc3[nH]c(-c4n[nH]c5ccc(-c6cncc(CN7CCCCC7)c6)nc45)cc23)c1` [Compound 15, 3-(4-(3-Fluorophenyl)-1H-pyrrolo[2,3-b]pyridin-2-yl)-5-(5-(piperidin-1-ylmethyl)pyridin-3-yl)-1H-pyrazolo[4,3-b]pyridine], the 50% effective concentration (EC50) in test [1], in test [2] and in test [3] was over 10 µM in each case. Moreover, the results for the inhibition at 10 µM in test [1], in test [2] and in test [3] were 41%, 10.3% and 29.9%, respectively.

As for `Cc1ccncc1-c1ccc2[nH]nc(-c3cc4c(-c5ccc(F)cc5)ccnc4[nH]3)c2n1` [Compound 33, 3-(4-(4-Fluorophenyl)-1H-pyrrolo[2,3-b]pyridin-2-yl)-5-(4-methylpyridin-3-yl)-1H-pyrazolo[4,3-b]pyridine], the EC50 in test [1], in test [2] and in test [3] was over 10 µM throughout. Further, the inhibition at 10 µM in test [1] came to 5.4%; in test [2], 2.9%; in test [3], 15.9%.

On to `O=C(Nc1cncc(-c2ccc3[nH]nc(-c4cc5c(-c6ccc(F)cc6)ccnc5[nH]4)c3n2)c1)c1ccccc1` [Compound 39, N-(5-(3-(4-(4-Fluorophenyl)-1H-pyrrolo[2,3-b]pyridin-2-yl)-1H-pyrazolo [4,3-b]pyridin-5-yl)pyridin-3-yl)benzamide], for which the figures for the 50% effective concentration (EC50) in test [1], in test [2] and in test [3] were over 10 µM, 7.79 µM and over 10 µM, respectively. Besides, the inhibition at 10 µM in test [1] is 7.7%; in test [3], 11.1%.

Take `Fc1ccc(-c2ccnc3[nH]c(-c4n[nH]c5ccc(-c6cncc(CN7CCC(F)(F)C7)c6)nc45)cc23)cc1` [Compound 54, 5-(5-((3,3-Difluoropyrrolidin-1-yl)methyl)pyridin-3-yl)-3-(4-(4-fluorophenyl)-1H-pyrrolo[2,3-b]pyridin-2-yl)-1H-pyrazolo[4,3-b]pyridine]: the concentration for a half-maximal effect (EC50) is over 10 µM in test [1], 0.374 µM in test [2] and over 10 µM in test [3]. For the same compound, the inhibition at 10 µM stood at 34.8% in test [1] and 27.8% in test [3].

For `Fc1ccc(-c2ccnc3[nH]c(-c4n[nH]c5ccc(-c6cncnc6)nc45)cc23)cc1` [Compound 55, 3-(4-(4-Fluorophenyl)-1H-pyrrolo[2,3-b]pyridin-2-yl)-5-(pyrimidin-5-yl)-1H-pyrazolo[4,3-b]pyridine], the 50% effective concentration (EC50) in test [1], in test [2] and in test [3] was over 10 µM each time. For the same compound, the inhibition at 10 µM in test [1] was 14.1%; in test [2] it was 0%; in test [3] it was 20.5%.

For the compound `CC(C)CC(=O)Nc1cncc(-c2ccc3[nH]nc(-c4cc5c(-c6ccccc6F)ccnc5[nH]4)c3n2)c1` [Compound 58, N-(5-(3-(4-(2-Fluorophenyl)-1H-pyrrolo[2,3-b]pyridin-2-yl)-1H-pyrazolo [4,3-b]pyridin-5-yl)pyridin-3-yl)-3-methylbutanamide], the values for the EC50 in test [1], in test [2] and in test [3] were 0.1 µM, over 10 µM and over 10 µM, respectively. Further, the inhibition at 10 µM in test [2] worked out at 18.2%; in test [3], 11.5%.

With `CN(C)Cc1cncc(-c2ccc3[nH]nc(-c4cc5c(-c6ccccc6F)ccnc5[nH]4)c3n2)c1` [Compound 69, 1-(5-(3-(4-(2-Fluorophenyl)-1H-pyrrolo[2,3-b]pyridin-2-yl)-1H-pyrazolo [4,3-b]pyridin-5-yl)pyridin-3-yl)-N,N-dimethylmethanamine], the EC50 is 1.08 µM in test [1], 2 µM in test [2] and over 10 µM in test [3]. For the same compound, the inhibition at 10 µM in test [3] is 33.5%.

In the case of `O=C(Nc1cncc(-c2ccc3[nH]nc(-c4cc5c(-c6ccccc6F)ccnc5[nH]4)c3n2)c1)C1CC1` [Compound 76, N-(5-(3-(4-(2-Fluorophenyl)-1H-pyrrolo[2,3-b]pyridin-2-yl)-1H-pyrazolo [4,3-b]pyridin-5-yl)pyridin-3-yl)cyclopropanecarboxamide], the EC50 was over 10 µM in test [1], 5.26 µM in test [2] and 4.7 µM in test [3]. Besides, the inhibition at 10 µM in test [1] amounted to 42.2%.
